For eleven molecules, IC50 results are on record in patent US8039481B2, “Tetrahydrofuran derivatives for use as inhibitors of matrix metalloproteinases” (Sanofi-Aventis, priority 2005, dated 2011).

Holding throughout (type): biochemical
Assay [1] concerns the target catalytic domain of human gelatinase-A (MMP-2) (Homo sapiens, UniProt P08253). The assay is described as follows: Enzymatic activity of the catalytic domain of human gelatinase-A (MMP-2), fluorogenic substrate. The protocol:
Determination of the Enzymatic Activity of the Catalytic Domain of Human Gelatinase-A (MMP-2)
Activation of the proenzyme: 2 parts by volume of proenzyme were incubated with 1 part by volume of APMA solution at 37° C. for 0.5 hours. The APMA solution was prepared from a 10 mmol/l p-aminophenylmercuric acetate solution in 0.1 mmol/l NaOH by dilution with 3 parts by volume of Tris/HCl buffer pH 7.5 (see below). The pH was adjusted to between 7.0 and 7.5 by adding 1 mmol/l HCl. After activation of the enzyme it was diluted with the Tris/HCl buffer to a concentration of 0.83 μg/ml.
(§1) The enzymic activity was measured by incubating 10 μl of enzyme solution with 10 μl of a 3% strength (v/v) buffered dimethyl sulfoxide solution (reaction 1) for 15 minutes. The enzyme inhibitor activity was measured by incubating 10 μl of enzyme solution with 10 μl of a 3% strength (v/v) buffered dimethyl sulfoxide solution which contained the enzyme inhibitor (reaction 2).
The enzymic reaction both in the case of reaction 1 and in the case of reaction 2 was followed after addition of 10 μl of a 3% strength (v/v) aqueous dimethyl sulfoxide solution which contained 0.3 mmol/l of the substrate by fluorescence spectroscopy (328 nm (extinction)/393 nm (emission)).
The enzymic activity has been presented as increase in extinction/minute. The effect of the inhibitor was calculated as percentage inhibition by the following formula: % inhibition=100−[(increase in extinction/minute in reaction 2)/(increase in extinction/minute in reaction 1)×100].
(§2) The IC50, which is the concentration of inhibitor which is necessary for 50% inhibition of the enzymic activity, was determined graphically by plotting the percentage inhibitions at various inhibitor concentrations.
The buffer solution contained 0.05% Brij (Sigma, Deisenhofen, Germany) and 0.1 mol/l Tris/HCl, 0.1 mol/l NaCl, 0.01 mol/l CaCl2 (pH=7.5). The enzyme solution contained 0.83 μg/ml of the enzyme domain. The substrate solution contained 0.3 mmol/l of the fluorogenic substrate (7-methoxycoumarin-4-yl)acetyl-Pro-Leu-Gly-Leu-3-(2′,4′-dinitrophenyl)-L-2,3-diaminopropionyl-Ala-Arg-NH2 (Bachem, Heidelberg, Germany).

The target of assay [2] is T1, catalytic domain of human stromelysin (MMP-3) (Homo sapiens, UniProt P08254).
T1 construct: Preparation and determination of the enzymatic activity of the catalytic domain of human stromelysin (MMP-3); made in house
Kind of assay: Enzymatic activity of the catalytic domain of human stromelysin (MMP-3), fluorogenic substrate. The protocol:
(§3) Preparation and determination of the enzymatic activity of the catalytic domain of human stromelysin (MMP-3) and of neutrophil collagenase (MMP-8). The two enzymes stromelysin (MMP-3) and neutrophil collagenase (MMP-8) were prepared by the method of Ye et al. (Biochemistry; 31 (1992) pages 11 231-11 235). The enzymic activity or the effect of the enzyme inhibitor was measured by incubating 10 μl of enzyme solution with 10 μl of a 3% strength (v/v) buffered dimethyl sulfoxide solution which contained the enzyme inhibitor where appropriate, for 15 minutes. After addition of 10 μl of a 3% strength (v/v) aqueous dimethyl sulfoxide solution which contained 1 mmol/l of the substrate, the enzymic reaction was followed by fluorescence spectroscopy (328 nm (ex)/393 nm(em)).
(§4) The enzymic activity is presented as increase in extinction/minute. The IC50 values listed in Table 2 were determined as the inhibitor concentrations leading in each case to 50% inhibition of the enzyme.
(§5) The buffer solution contained 0.05% Brij (Sigma, Deisenhofen, Germany) and 0.1 mol/l Tris/HCl, 0.1 mol/l NaCl, 0.01 mol/l CaCl2 and 0.1 mol/l piperazine-N,N′-bis[2-ethanesulfonic acid] (pH=7.5).
(§6) The MMP-3 enzyme solution contained 2.3 μg/ml and the MMP-8 enzyme solution 0.6 μg/ml of one of the enzyme domains prepared by the method of Ye et al. The substrate solution contained 1 mmol/l of the fluorogenic substrate (7-methoxycoumarin-4-yl)acetyl-Pro-Leu-Gly-Leu-3-(2′,4′-dinitrophenyl)-L-2,3-diaminopropionyl-Ala-Arg-NH2 (Bachem, Heidelberg, Germany).

In assay [3] the target is T2, catalytic domain of neutrophil collagenase (MMP-8) (Homo sapiens, UniProt P22894).
T2 construct: catalytic domain of human stromelysin (MMP-3) and of neutrophil collagenase (MMP-8); made in house
Kind of assay: Enzymatic activity of the catalytic domain of neutrophil collagenase (MMP-8), fluorogenic substrate. The protocol:
as §3, §4, §5, §6

Assay [4] has as its target catalytic domain of human gelatinase-A (MMP-9) (Homo sapiens, UniProt P14780). The assay is described as follows: Enzymatic activity of the catalytic domain of human gelatinase-A (MMP-9), fluorogenic substrate. The protocol: Determination of the Enzymatic Activity of the Catalytic Domain of Human Gelatinase-A (MMP-9)
Activation of the proenzyme:
2 parts by volume of proenzyme were incubated with 1 part by volume of APMA solution at 37° C. for 4 hours. The APMA solution was prepared from a 10 mmol/l p-aminophenylmercuric acetate solution in 0.1 mmol/l NaOH by dilution with 3 parts by volume of Tris/HCl buffer pH 7.5 (see below). The pH was adjusted to between 7.0 and 7.5 by adding 1 mmol/l HCl. After activation of the enzyme it was diluted with the Tris/HCl buffer to a concentration of 4.2 mU/ml.
as §1
The enzymic reaction both in the case of reaction 1 and in the case of reaction 2 was followed after addition of 10 μl of a 3% strength (v/v) aqueous dimethyl sulfoxide solution which contained 0.15 mmol/l of the substrate by fluorescence spectroscopy (328 nm (extinction)/393 nm (emission)).
The enzymic activity has been presented as increase in extinction/minute.
The effect of the inhibitor was calculated as percentage inhibition by the following formula: % inhibition=100−[(increase in extinction/minute in reaction 2)/(increase in extinction/minute in reaction 1)×100].
as §2
The buffer solution contained 0.05% Brij (Sigma, Deisenhofen, Germany) and 0.1 mol/l Tris/HCl, 0.1 mol/l NaCl, 0.01 mol/l CaCl2 (pH=7.5). The enzyme solution contained 4.2 mU/ml of the enzyme domain. The substrate solution contained 0.15 mmol/l of the fluorogenic substrate (7-methoxycoumarin-4-yl)acetyl-Pro-Leu-Gly-Leu-3-(2′,4′-dinitrophenyl)-L-2,3-diaminopropionyl-Ala-Arg-NH2 (Bachem, Heidelberg, Germany).

T2 sequence (P22894 100-262 limits assumed): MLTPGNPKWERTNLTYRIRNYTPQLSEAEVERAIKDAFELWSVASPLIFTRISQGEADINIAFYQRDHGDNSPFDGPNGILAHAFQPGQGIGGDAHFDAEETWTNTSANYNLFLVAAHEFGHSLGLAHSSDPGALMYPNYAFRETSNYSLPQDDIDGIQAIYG
Chain of catalytic domain of human gelatinase-A (MMP-2) (P08253 110-465 limits assumed): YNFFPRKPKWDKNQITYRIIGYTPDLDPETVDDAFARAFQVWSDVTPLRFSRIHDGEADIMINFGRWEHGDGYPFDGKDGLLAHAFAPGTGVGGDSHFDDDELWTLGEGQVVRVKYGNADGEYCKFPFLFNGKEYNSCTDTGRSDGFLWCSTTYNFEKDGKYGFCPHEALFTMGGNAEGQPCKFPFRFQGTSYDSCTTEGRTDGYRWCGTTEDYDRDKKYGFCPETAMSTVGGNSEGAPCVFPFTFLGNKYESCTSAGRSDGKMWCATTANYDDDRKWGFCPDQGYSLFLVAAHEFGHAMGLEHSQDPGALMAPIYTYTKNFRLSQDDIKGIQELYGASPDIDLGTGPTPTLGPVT
T1 sequence (P08254 100-272 limits assumed): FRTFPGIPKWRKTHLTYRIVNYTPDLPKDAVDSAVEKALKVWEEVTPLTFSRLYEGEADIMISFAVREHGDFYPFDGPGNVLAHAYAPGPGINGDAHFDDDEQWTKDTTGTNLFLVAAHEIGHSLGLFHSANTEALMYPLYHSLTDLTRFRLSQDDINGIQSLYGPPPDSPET
Chain of catalytic domain of human gelatinase-A (MMP-9) (P14780 107-444 limits assumed): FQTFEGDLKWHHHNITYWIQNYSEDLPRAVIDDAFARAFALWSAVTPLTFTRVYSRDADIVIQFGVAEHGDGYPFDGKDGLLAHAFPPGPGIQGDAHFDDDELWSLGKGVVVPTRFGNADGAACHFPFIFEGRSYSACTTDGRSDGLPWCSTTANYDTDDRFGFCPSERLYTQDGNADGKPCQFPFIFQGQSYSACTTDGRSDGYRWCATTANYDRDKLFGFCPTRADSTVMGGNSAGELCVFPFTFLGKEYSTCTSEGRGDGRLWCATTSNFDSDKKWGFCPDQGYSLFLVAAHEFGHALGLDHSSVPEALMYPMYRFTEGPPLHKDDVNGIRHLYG

One may read the IC50 as the midpoint of a concentration-inhibition curve. High values mean a need for much substance, low ones inhibition by little substance. With `O=C(NO)C1C2CCOC2CCN1S(=O)(=O)c1ccc(-c2ccc(Cl)cc2)cc1` (centres unmarked) [Example 7, 5-(4′-chlorobiphenyl-4-sulfonyl)octahydrofuro[3,2-c]pyridine-4-(N-hydroxy)-carboxamide], the IC50 in assay [1] is 1.7 nM; in assay [2] it was 29 nM; in assay [3], 2.4 nM; in assay [4], 2.4 nM.

Take `O=C(NO)C1C2CCOC2CCN1S(=O)(=O)c1ccc(Oc2ccc(Cl)cc2)cc1` (centres unmarked) [Example 18, 5-[4-(4-chlorophenoxy)benzenesulfonyl]octahydrofuro[3,2-c]pyridine-4-(N-hydroxy)-carboxamide]: the IC50 was 2 nM in assay [1], 27 nM in assay [2], 24 nM in assay [3] and 2 nM in assay [4].

In the case of `O=C(NO)[C@@H]1[C@@H]2CCO[C@@H]2CCN1S(=O)(=O)c1ccc(Oc2ccc(F)cc2)cc1` [Example 13], the IC50 in assay [1] came out at 47 nM; in assay [2], 1500 nM; in assay [3] it was 150 nM; in assay [4], 150 nM.

For the molecule `N#Cc1ccc(Oc2ccc(S(=O)(=O)N3CC[C@@H]4OCC[C@@H]4[C@@H]3C(=O)NO)cc2)cc1` [Example 21], the half-maximal inhibitory concentration (IC50) is 1 nM in assay [1], 17 nM in assay [2], 2 nM in assay [3] and 8 nM in assay [4].

For the molecule `O=C(O)C1C2CCOC2CCN1S(=O)(=O)c1ccc(Oc2ccc(F)cc2)cc1` (centres unmarked) [Example 10, 5-[4-(4-fluorophenoxy)benzenesulfonyl]octahydrofuro[3,2-c]pyridine-4-carboxylic acid], the half-inhibitory concentration (IC50) in assay [1] is 440 nM; in assay [2] it was more than 10000 nM; in assay [3] it was 410 nM; in assay [4], 2500 nM.

Regarding `CS(=O)(=O)c1ccc(Oc2ccc(S(=O)(=O)N3CC[C@@H]4OCC[C@@H]4[C@@H]3C(=O)NO)cc2)cc1` [Example 23], the IC50 in assay [1] was 1 nM; in assay [2] it was 15 nM; in assay [3] it was 2 nM; in assay [4], 5 nM.

For the molecule `O=C(O)C1C2CCOC2CCN1S(=O)(=O)c1ccc(-c2ccc(Cl)cc2)cc1` (centres unmarked) [Example 6, 5-(4′-chlorobiphenyl-4-sulfonyl)octahydrofuro[3,2-c]pyridine-4-carboxylic acid], the IC50 turned out to be 38 nM in assay [1], 3500 nM in assay [2], 54 nM in assay [3] and 2200 nM in assay [4].

Turning to `O=C(NO)[C@H]1[C@H]2CCO[C@H]2CCN1S(=O)(=O)c1ccc(Oc2ccc(F)cc2)cc1` [Example 12], the half-maximal inhibitory concentration (IC50) in assay [1] turned out to be 0.8 nM; in assay [2] it was 14 nM; in assay [3] it was 2 nM; in assay [4] it was 1.3 nM.

For `O=C(NO)[C@@H]1[C@@H]2CCO[C@@H]2CCN1S(=O)(=O)c1ccc(-c2ccc(Cl)cc2)cc1` [Example 9], the IC50 is 71 nM in assay [1], 1100 nM in assay [2], 170 nM in assay [3] and 120 nM in assay [4].

Take `O=C(NO)C1C2CCOC2CCN1S(=O)(=O)c1ccc(Oc2ccc(F)cc2)cc1` (centres unmarked) [Example 11, 5-[4-(4-fluorophenoxy)benzenesulfonyl]octahydrofuro[3,2-c]pyridine-4-(N-hydroxy)-carboxamide]: the half-inhibitory concentration (IC50) in assay [1] worked out at 2 nM; in assay [2] it was 34 nM; in assay [3], 6 nM; in assay [4], 3 nM.

Turning to `O=C(NO)[C@H]1[C@H]2CCO[C@H]2CCN1S(=O)(=O)c1ccc(-c2ccc(Cl)cc2)cc1` [Example 8], the IC50 worked out at 0.8 nM in assay [1], 13 nM in assay [2], 1 nM in assay [3] and 1.5 nM in assay [4].
